From patent publication US11421218B2, “Methods for enhancing the efficiency of gene editing” (Dana-Farber Cancer Institute, Inc., priority 2016, dated 2022)
“Also recorded” adds a separate entry of the source.

Experiments:
[1] = tested on: U2OS cells with DR-GFP reporter; assay: Homologous recombination assay, U2OS cells with DR-GFP reporter; type: cell-based; conditions: 10 μM
Procedure: Homologous recombination assay was measured in U2OS cells with DR-GFP reporter after treatment with 10 μM RI-1 and 10 μM B02. The representative of two independent experiments is presented.
HR assay was measured in U2OS cells with DR-GFP reporter after transduction with lentivirus encoding indicated shRNAs. The representative of three independent experiments is presented.

[2] = tested on: RAD51 foci; assay: RAD51 foci formation by immunofluorescence in MMC-treated GM6914 cells; type: cell-based; conditions: GM6914 (FA-A) or GM6914+FANCA cells, 1 μM MMC, 10 μM inhibitors, 6 h
Procedure: GM6914 (FA-A) cells or corrected GM6914+FANCA cells were treated with 1 μMMMC and 10 μM inhibitors for 6 h before immunofluorescence analysis. Representative images (FIG. 3E) and quantification (FIG. 3F) of RAD51 foci are shown, (Scale bar: 50 μm).

[3] = tested on: HSPCs; assay: HSPC survival with RAD51 inhibitors (cytotoxicity); type: cell-based; conditions: HSPCs from WT or Fancd2−/− mice, 10 μM, in vitro five days
Procedure: HSPCs from WT or Fancd2−/− mice were treated with B02 (10 μM) or RI-1 (10 μM) in vitro for five days and survival was determined.

[4] = tested on: LT-HSCs; assay: pIpC stress in mice, comet assay on LT-HSCs; conditions: wild-type or Fancd2-deficient mice, pretreated in vivo
Source text: (§1) FIG. 6A is a schematic showing that wild-type or Fancd2-deficient mice were exposed to the physiologic stress, pIpC. Mice were pretreated in vivo with either no Tgfβ inhibitor, the neutralizing antibody to Tgfβ 1, 2, 3, or the Tgfβ receptor kinase inhibitor, Galunisertib. Long-term HSCs (LT-HSCs) were isolated and subjected to functional tests.

[5] = tested on: gamma H2AX foci; assay: pIpC stress in mice, gamma H2AX foci; conditions: wild-type or Fancd2-deficient mice, pretreated in vivo
Source text: as §1

[6] = tested on: TGFβ signaling; assay: Physiological stress (pIpC)-induced bone marrow failure in mice; conditions: pretreated in vivo
Source text: as §1

[7] = tested on: GM6914 cells (FA-A cells); assay: Traffic light reporter assay of HR and NHEJ repair events; type: cell-based; conditions: GM6914 cells exposed to SD-208 for 72 hrs
Source text: FIGS. 4A-4B are graphs showing that TGF-β pathway inhibition affects the choice of HR versus NHEJ pathways in repairing individual DNA breakpoints in FA cells. GM6914 cells (FA-A cells) or FANCA corrected GM6914 cells with shControl or shSMAD3 were used to generate traffic light reporter system, and then were infected with GFP-donor template and I-SceI lentivirus to generate DNA breakpoints. Quantification analysis of HR and NHEJ repair events is shown. (FIG. 4B) The ratio of HR to NHEJ activity based on the data in (FIG. 4A).
Quantification of HR and NHEJ repair events in GM6914 cells exposed to SD-208 for 72 hrs as detected by traffic light reporter assay described in FIG. 4A.
FIG. 5A is a schematic of traffic light reporter assay. Endonuclease 1-SceI induces double strand break (DSB) in the restriction site. […]
FIG. 5B is a graph showing HR and NHEJ repair analyzed by traffic light reporter (TLR) system. […] HR and NHEJ repair events (GFP or mCherry positive cells) were quantified by flow cytometry.
To directly confirm that inhibition of TGF-β pathway modulates HR or NHEJ activity, we engineered an individual DNA breakpoint in FA (GM6914) cells and employed the traffic light reporter […] system which quantifies both HR and NHEJ activities (Certo et al., 2011). […]

Structure (SMILES) | HR efficiency [1] | RAD51 foci formation [2] | cytotoxicity in HSPCs (survival) [3] | further results
O=c1c2ccccc2nc(/C=C/c2cccnc2)n1Cc1ccccc1 [B02] | significantly decrease HR efficiency | efficiently block RAD51 foci formation | do not show cytotoxicity in HSPCs | –
O=C1C(Cl)=C(N2CCOCC2)C(=O)N1c1ccc(Cl)c(Cl)c1 [RI-1] | significantly decrease HR efficiency | efficiently block RAD51 foci formation | do not show cytotoxicity in HSPCs | –
Cc1cccc(-c2nn3c(c2-c2ccnc4ccc(C(N)=O)cc24)CCC3)n1 [Galunisertib, 4-[2-(6-methylpyridin-2-yl)-5,6-dihydro-4H-pyrrolo[1,2-b]pyrazol-3-yl]quinoline-6-carboxamide] | – | – | – | pIpC-induced DNA damage in LT-HSCs, comet assay [4]: rescued the pIpC-induced DNA damage; pIpC-induced DNA damage, gamma H2AX foci [5]: rescued the pIpC-induced DNA damage; physiological stress-induced bone marrow failure [6]: rescues physiological stress-induced bone marrow failure in mice
Fc1ccc(Cl)cc1-c1nc(Nc2ccncc2)c2nccnc2n1 [SD208, 2-(5-Chloro-2-fluorophenyl)-4-[(4-pyridyl)amino]pteridine] | – | – | – | HR repair events [7]: increased HR activity in FA cells; also recorded: increases FIR events; NHEJ repair events [7]: decreases NHEJ events
